Article PMC7719179, “Small molecule inhibition of Dynamin-dependent endocytosis targets multiple niche signals and impairs leukemia stem cells” (Nature Communications, 2020)
Where “and” joins values, the source holds several entries; their conditions need not be identical. Identical values can stand only once.

Assays:
[1] = system: ETP12 and ALL8 patient-derived xenografts; experiment: Survival (Kaplan-Meier) and leukemia growth delay in ETP12 and ALL8 xenograft recipients; type: in vivo, human
Description: Patient-derived xenograft models were established as previously described[97],[98]. All experiments were pre-approved by the Human Research Ethics Committee of the University of New South Wales (UNSW), the UNSW Animal Care and Ethics Committee, the Alfred Health Human Ethics Committee and the AMREP Animal Ethics Committee. For transplantation assays, 10^6 splenocytes harvested from successfully engrafted primary human ETP-ALL or T-ALL xenografts were injected into nonobese diabetic/severe combined immunodeficient (NOD.Cg-Prkdc^scid, also termed NOD/SCID) or NOD/SCID/Il2rg^tm1wjl/SzJ (NSG) mice[99]. Moreover, 1.5 × 10^6 cells splenocytes harvested from successfully engrafted patient-derived AML xenografts were injected into nonobese diabetic/severe immunodeficient (NOD.Cg-Rag1^tm1MomIl2rg^tm1wjl/SzJ, also termed NRG) mice expressing human IL-3, human GM-CSF and human SCF from the SGM3 triple transgene (NRGS)[100]. Engraftment into recipients was monitored by FACS analysis of peripheral blood as previously described. […] Both males and females were used. […] Kaplan–Meier survival and statistical analyses were performed using GraphPad Prism. 6.0 software (GraphPad Software, Inc.). […]
(blue circles) and ALL8 (red open circles) 24 hours after the last dose of drugs was administered.
therapy. Median is indicated (bar) with Mean ± SEM indicated for ETP12 and ALL8, 2-way ANOVA
period of administration is indicated in light grey.

[2] = system: HES1 in patient-derived ETP-ALL and T-ALL cells; experiment: NOTCH1-induced HES1 in human ETP-ALL and T-ALL xenograft cells; type: cell-based; conditions: for HES1 relative expression, FOLD: fold over unstimulated
Description: Splenocytes from secondary xenografts were processed as previously described. […] Flow cytometric analysis of surface IL-7R levels and intracellular levels of pSTAT5 were performed as described in the FACS analysis section. For activation of NOTCH1-mediated signalling, 5 × 10^5 rested leukemia cells were seeded on OP9-DL1 stromal cells. Co-culture on OP9 stromal cells was used as a negative control. After 16 h of co-culture, leukemia cells were washed twice using cold PBS 1×. Flow cytometric analysis of NOTCH1 expression and intracellular levels of HES1 were performed as described in the FACS analysis section.

[3] = system: IL-7 signalling (pStat5) in Ba/F3-IL7R cells; experiment: IL-7-induced phospho-Stat5 in Ba/F3-IL7R cells (phosphoflow); type: cell-based, murine; conditions: for pStat5 (MFI): replicates
Description: Ba/F3 cells (kindly provided by a person from The Walter and Eliza Hall Institute of Medical Research) were infected with pMIG-R1/Il7r retroviral supernatants produced in 293T cells, and transduced cells were sorted with a BD Influx (BD Australia) and selected by culture in medium supplemented with 5 ng/mL rmIL-7 (#217-17, Pepro Tech, Rocky Hill NJ, USA) for 7 days. Ba/F3 cells stably expressing Il7r (Ba/F3-IL7R) were infected with TxTCPVIR-Stat5-CA retroviral supernatants produced in 293T. Cell sorting was performed with a BD Influx and transduced cells were treated with doxycycline for 48 h to induce the expression of the Stat5-CA-T2A-mCherry fusion protein.
Phosphoflow analysis was performed as previously described. Briefly, 2 × 10^6 cells stained for surface markers were subsequently resuspended into PBS 1× + 4% v/v paraformaldehyde and incubated for 10 min at 4 °C for fixation. Fixed cells were washed twice using PBS 1×, then resuspended in pre-chilled at −20 °C Perm Buffer III (BD Pharmingen) and incubated 30 min at 4 °C for permeabilization. Cells were washed twice using PBS 1× and incubated overnight at 4 °C in PBS 1× + 2% v/v fetal calf serum (FCS) with Cell Signalling purified antibodies (Genesearch Pty Ltd, Arundel QLD, Australia) against pSTAT5 (Tyr694; #9359), phospho-p38 MAPK (Thr180/Tyr182; #4511), phospho-p44/42 (Erk1/2; #9102), phospho-S6 (Ser235/236; #4856) and phospho-Akt (Ser473; #9271) or isotype control. For intracellular HES1 detection, cells stained for surface markers were subsequently fixed and permeabilized using the BD Cytofix/Cytoperm^TM Kit and incubated overnight at 4 °C in PBS 1× + 2% v/v FCS with a purified antibody against HES1 (D6PU; #11988, Cell Signalling) or isotype control. After staining with primary antibodies for phosphoflow or intracellular detection, cells were incubated in permeabilization buffer with donkey Alexa Fluor 488-conjugated anti-rabbit secondary antibody (A-21206, lot #1910751, Molecular Probes, Invitrogen) or goat Alexa Fluor 546-conjugated anti-rabbit secondary antibody (A-11035, lot #1904467, Molecular Probes, Invitrogen) for 1 h on ice, and washed twice in PBS 1×. Fluorescence-activated cell sorting (FACS) analysis was performed using LSRII and LSR Fortessa cytometers, following the gating strategies described in Supplementary Fig. 11. Cell sorting was performed with a FACSAria or BD Influx.
For in vitro IL-7 stimulation assays, cells were starved in serum-free DMEM at 37 °C, then incubated with either vehicle or Dynole 34-2 or Ruxolitinib (INCB018424; #S1378, Selleckchem), or DAPT (GSI-IX; #S2215, Selleckchem) resuspended in DMSO for 1 h. Thymocytes were subsequently stimulated with 25 ng/mL IL-7 at 37 °C for 20 min and washed twice using cold PBS 1×. Cells were incubated with 25 ng/mL Rat IgG (Sigma-Aldrich Pty Ltd, Castle Hill NSW, Australia) and with a PE-conjugated antibody for detection of IL-7R (CD127) for 1 h on ice, as described in the FACS analysis section. PE-conjugated isotype was used as negative control. Cells were washed twice, fixed and phosphoflow analysis performed as described in the FACS analysis section. The analysis was performed in triplicate and the mean fluorescence intensity (MFI) observed without stimulation was reported as 100%.

Question: `CCCCCCCCNC(=O)C(C#N)=Cc1cn(CCCN(C)C)c2ccccc12` [Dynole 34-2, 2-Cyano-N-octyl-3-(1-(3-dimethylaminopropyl)-1H-indol-3-yl)-acrylamide] was tested. Which “survival of recipients, single agent” value ([1]; ETP12 and ALL8 xenografts, result in words) did it give?
Answer: significant survival advantage

Question: And the “Leukemia Growth Delay (LGD) Over Vehicle” value ([1]; PDX ALL8)?
Answer: 2.62 days

Question: What about the “Leukemia Growth Delay (LGD) Over Vehicle” value ([1]; PDX ETP12) of the same compound?
Answer: 7.34 days

Question: And the Time to leukemia ([1]; PDX ETP12)?
Answer: 4.63 weeks and 5.6 weeks and 4.86 weeks and 4.8 weeks and 5.54 weeks and 4.7 weeks and 4.81 weeks and 6.67 weeks

Question: What about the “HES1 relative expression, MFI” value ([2]; ALL8) of the same compound?
Answer: 4877 MFI and 4405 MFI

Question: What about the “HES1 relative expression, FOLD” value ([2]; ALL8) of the same compound?
Answer: 0.60 FOLD and 0.67 FOLD

Question: And the “HES1 relative expression, MFI” value ([2]; ALL16)?
Answer: 5772 MFI and 5666 MFI

Question: And the “HES1 relative expression, FOLD” value ([2]; ALL16)?
Answer: 0.83 FOLD and 0.85 FOLD

Question: And the “HES1 relative expression, MFI” value ([2]; ALL29)?
Answer: 5243 MFI and 5145 MFI

Question: What about the “HES1 relative expression, FOLD” value ([2]; ALL29) of the same compound?
Answer: 0.70 FOLD and 0.71 FOLD

Question: What about the “HES1 relative expression, MFI” value ([2]; ALL31) of the same compound?
Answer: 5977 MFI and 5691 MFI

Question: What about the “HES1 relative expression, FOLD” value ([2]; ALL31) of the same compound?
Answer: 0.71 FOLD and 0.74 FOLD

Question: And the “HES1 relative expression, MFI” value ([2]; ALL33)?
Answer: 6590 MFI and 6678 MFI

Question: And the “HES1 relative expression, FOLD” value ([2]; ALL33)?
Answer: 0.90 FOLD and 0.89 FOLD

Question: What about the “HES1 relative expression, MFI” value ([2]; ETP1) of the same compound?
Answer: 6721 MFI and 6600 MFI

Question: What about the “HES1 relative expression, FOLD” value ([2]; ETP1) of the same compound?
Answer: 0.88 FOLD and 0.90 FOLD

Question: And the “HES1 relative expression, MFI” value ([2]; ETP5)?
Answer: 7460 MFI and 7513 MFI

Question: What about the “HES1 relative expression, FOLD” value ([2]; ETP5) of the same compound?
Answer: 0.72 FOLD

Question: And the “HES1 relative expression, MFI” value ([2]; ETP8)?
Answer: 6107 MFI and 5672 MFI

Question: And the “HES1 relative expression, FOLD” value ([2]; ETP8)?
Answer: 0.72 FOLD and 0.78 FOLD

Question: What about the “HES1 relative expression, MFI” value ([2]; ETP12) of the same compound?
Answer: 6018 MFI and 5803 MFI

Question: And the “HES1 relative expression, FOLD” value ([2]; ETP12)?
Answer: 0.87 FOLD and 0.89 FOLD

Question: What about the “HES1 relative expression, MFI” value ([2]; ETP13) of the same compound?
Answer: 4629 MFI and 4445 MFI

Question: What about the “HES1 relative expression, FOLD” value ([2]; ETP13) of the same compound?
Answer: 0.69 FOLD and 0.72 FOLD

Question: What about the “HES1 relative expression, MFI” value ([2]; ETP14) of the same compound?
Answer: 4477 MFI and 4496 MFI

Question: And the “HES1 relative expression, FOLD” value ([2]; ETP14)?
Answer: 0.89 FOLD and 0.86 FOLD

Question: What about the HES1 protein levels ([2]; immature and mature subtypes of human T-ALL, result in words) of the same compound?
Answer: significantly decreased

Question: And the “pStat5 (MFI)” value ([3]; Ba/F3-IL7R cells, +IL-7, Dynole 34-2 0.2)?
Answer: 2033 MFI and 1947 MFI and 1891 MFI

Question: And the “pStat5 (MFI)” value ([3]; Ba/F3-IL7R cells, +IL-7, Dynole 34-2 1.0)?
Answer: 1526 MFI and 1732 MFI and 1712 MFI

Question: What about the “pStat5 (MFI)” value ([3]; Ba/F3-IL7R cells, +IL-7, Dynole 34-2 5.0) of the same compound?
Answer: 1296 MFI and 1207 MFI and 1690 MFI

Question: And the “pStat5 (MFI)” value ([3]; Ba/F3-IL7R cells, +IL-7, Dynole 34-2 10.0)?
Answer: 1304 MFI and 1113 MFI and 1201 MFI

Question: What about the “pStat5 (MFI)” value ([3]; Ba/F3-IL7R cells, +IL-7, Dynole 34-2 25.0) of the same compound?
Answer: 1259 MFI and 1141 MFI and 1161 MFI

Question: What about the “inhibition of IL-7 signalling as measured by loss of phospho-Stat5” value ([3]; Ba/F3-IL7R cells, result in words) of the same compound?
Answer: dose-dependent inhibition

Question: What about the IC50 ([3]; Mus musculus, Ba/F3-IL7R cells + IL-7, flow cytometry, read-out: IC50, inhibition of IL-7 signalling (pStat5)) of the same compound?
Answer: 4.29 ± 0.77 µM
